Test results published in patent US20030050236A1, “Compounds that enhance tumor death” (The University of Chicago, priority 2000, published 2003).
Structures can show the parent of a compound that is named as a salt. Where two headings read alike, the source gives them in different places. Blank lines part the entries; values can stand above or below the molecule they belong to. *1 amine or outer side, *2 acyl side, *3 side chain or, on linkers, in order; H or OH if unused. Where a SMILES comes first, the peptide text is derived from it. Bridges are numbered along the chain shown (N, C = ends). Roman numbers before positions name the chains, in order. Where no end group is shown, it is not given here. [ ]: non-standard residue; d: D form. Actinocin(9to1) = Cc1c2oc3c(C)ccc(C(=O)[*:1])c3nc-2c(C(=O)[*:2])c(N)c1=O; NMeV = CN[C@H](C(=O)O)C(C)C; Dap = NC[C@H](N)C(=O)O; Sar = CNCC(=O)O

Assays:
[1] = test system: H-Ras- and N-Ras-encoded p21s; conditions: cited from earlier work
[2] = cited from earlier work; for fraction of dose excreted / recovered in the urine: unchanged, intact or active drug
PPT1 [3] = molecular target: T1, PPT1 (Homo sapiens, UniProt P50897); conditions: cited from earlier work
T1 sequence (P50897 28-306): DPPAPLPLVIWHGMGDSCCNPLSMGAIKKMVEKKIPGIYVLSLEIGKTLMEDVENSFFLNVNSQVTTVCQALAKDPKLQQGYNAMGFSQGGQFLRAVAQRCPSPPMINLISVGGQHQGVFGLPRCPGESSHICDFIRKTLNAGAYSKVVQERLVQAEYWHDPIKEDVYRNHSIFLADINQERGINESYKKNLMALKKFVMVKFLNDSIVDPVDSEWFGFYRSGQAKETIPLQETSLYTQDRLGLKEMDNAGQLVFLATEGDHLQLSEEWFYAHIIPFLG

[4] = cited from earlier work
[5] = test system: LA-N-5 human neuroblastoma cells; assay: Cell viability / cell death by MTT assay; assay type: cell-based; conditions: LY-294002 30 μM, C2 ceramide 25 μM; 24 hrs
Method: LA-N-5 human neuroblastoma cells were grown in DMEM supplemented with 10% fetal bovine serum and 1% gentamicin. […] Cell death was measured by the MTT method (Cho et al., 2000a; Cho et al., 2000b; Cho et al., 2000c).

[6] = multiple myeloma, oral administration; cited from earlier work
PPT1 [7] = molecular target: T1, PPT1; assay: In vitro PPT1 activity assay, [14C]palmitoyl peptide substrates, cell extract
Method: Incubations were performed for 20 min at 37° C. and reactions terminated by addition of 1 ml of chloroform/methanol/2N HCl (2:1:0.06, v/v). After the centrifugation, organic phase was analyzed by HPTLC using n-butanol/pyridine/acetic acid/water (45:30:9:36, v/v) and [14C] palmitate release was quantified.
The peptide sequence, AcGCVKIKK (a palmitoylation site in K-Ras), was modified by substituting the SH group of cysteine with NH2 to generate diamino propionic acid, which was then acylated with palmitate (AcG-palmitoyl diamino propionate-VKIKK). […] In another set of experiments, the unmodified peptide itself (AcGCVKIKK) was used as a control to exclude the possibility of a nonspecific effect of the sequence on PPT activity.
In brief, the cell sonicate was incubated in the assay mixture containing 50 mM sodium citrate (pH 4.0) and IRY([^4C]palmitoylated)CWLRR octapeptide (2,000-4,000 cpm) for 20 min at 37° C. For the pH profile of PPT1 activity, 50 mM sodium citrate (pH 5 or 6) or 50 mM Tris-HCl (pH 7.4) was used with other conditions remaining the same. After addition of 1 ml of chloroform/methanol/2N HCl (2:1:0.06, by volume) and centrifugation, the organic phase was dried, reconstituted sample analyzed by HPTLC using n-butanol/pyridine/acetic acid/water (45:30:9:36, by volume) and the radioactive spot corresponding to [^14C] palmitate was counted.
PPT1 activity was measured as described above. In brief, the cell sonicate was incubated in the assay mixture (50 mM sodium citrate (pH 4.0) for [^14C]palmitoylated [sequence] Po peptide substrate (3,000-4,000 cpm) or 50 mM Tris (pH 7.4) for [^14C]palmitoylated MLCCMRR GAP43 peptide substrate) for 20 min at 37° C. After organic extraction, samples were analyzed by HPTLC using n-butanol/pyridine/acetic acid/water (45:30:9:36, by volume) and the radioactive spot corresponding to [^14C] palmitate was counted.

[8] = test system: PPT1 overexpressing LA-N-5 cells; assay: Cell death by MTT assay in PPT1 overexpressing cells; assay type: cell-based, human; conditions: compared to LAN-5 cells
Method: Cells were plated in 24-well culture plates containing 500 μl media. After drug treatment, 50 μl MTT (5 mg/ml in PBS) was added and incubated for 20 min at 37° C. An aliquot of 500 μl of 10% sodium dodecyl sulfate in 0.01 N HCl was added. After incubating overnight, the absorbance at 570 nm was determined by spectrophotometry. Cell viability was calculated as percent cell survival by dividing absorbance [treatment-blank] by absorbance [control-blank], where treatment is the reading for the treated cells, control is for vehicle-treated cells and blank is for MTT added to the media without cells.
In order to further verify that the increased susceptibility to drug-induced apoptosis of the AS-PPT1 treated cells was due to compromised PPT1 activity, the extent of cell death induced by C2-ceramide treatment in control was compared to DAP 1-treated cells. Treatment of cells with DAP1 alone induced 5-10% death of cells at DAP1 concentrations up to 100 μM for 6 h., as measured by MTT assay (FIG. 10A). […] In these cells, neither C2-ceramide, DAP1 alone or DAP1 (100 μM) followed by C2-ceramide (30 μM) for 6 h induced more than 10% cell death (FIG. 10B).
LA-N-5 human neuroblastoma cells were grown in DMEM supplemented with 10% fetal bovine serum and 1% gentamicin. Clones of cells stably expressing PPT1 were selected and maintained by growing in media containing G418 (500 μg/ml) as described (Cho, et al., 2000b). Cell death was measured by the MTT method (Cho et al., 2000a; Cho et al., 2000b; Cho et al., 2000c).

[9] = test system: HOG cells, human oligodendroglioma cells; assay: Killing of HOG cells, MTT assay; assay type: cell-based; conditions: 24 hours
Method: The relative potency of DAP1 compared to DAP1 ketoamide (DAP-KA) in killing cells was evaluated. HOG cells, human oligodendroglioma cells, were exposed for 24 hours to a) DAP1 or DAP-KA (FIG. 15A) or […] etoposide and either DAP 1 or DAP-KA (FIG. 15B). The concentration of etoposide was chosen to give 50% killing as measured by MTT assay.

[10] = molecular target: T2, palmitoyl protein thioesterase 1 (PPT1) (human, UniProt P50897 28-306); assay: cell-based or functional assay
T2 sequence: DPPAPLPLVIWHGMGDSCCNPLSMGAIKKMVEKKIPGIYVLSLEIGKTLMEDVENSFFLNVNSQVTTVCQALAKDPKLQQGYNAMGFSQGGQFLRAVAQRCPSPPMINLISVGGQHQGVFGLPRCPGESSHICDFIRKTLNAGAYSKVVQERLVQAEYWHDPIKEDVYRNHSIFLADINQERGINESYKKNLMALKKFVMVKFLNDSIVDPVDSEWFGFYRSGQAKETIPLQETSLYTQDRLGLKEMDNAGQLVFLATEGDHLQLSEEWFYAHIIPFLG

Molecule: C/C=C/C/C=C/CCC(=O)[C@H]1O[C@H]1C(N)=O (relative stereo) [cerulenin, [2R, 3S]-2,3-epoxy-4-oxo-7,10-trans, trans-dodecadienamide]
palmitoylation of Ras p21s [1]: able to inhibit the palmitoylation

Molecule: Cc1c2oc3c(C)ccc(C(=O)N[C@@H]4C(=O)N[C@H](C(C)C)C(=O)N5CCC[C@H]5C(=O)N(C)CC(=O)N(C)[C@@H](C(C)C)C(=O)O[C@@H]4C)c3nc-2c(C(=O)N[C@@H]2C(=O)N[C@H](C(C)C)C(=O)N3CCC[C@H]3C(=O)N(C)CC(=O)N(C)[C@@H](C(C)C)C(=O)O[C@@H]2C)c(N)c1=O [Actinomycin D] (I: T[dV]P[Sar][NMeV] / II: T[dV]P[Sar][NMeV]; ester I:1-I:C, II:1-II:C; linker I:N-II:N via Actinocin(9to1))
fraction of dose excreted / recovered in the urine [2]: 10%

Molecule: CC[C@H](C)[C@H]1NC(=O)[C@@H](NC(=O)[C@@H](CC(C)C)N(C)C(=O)[C@@H]2CCCN2C(=O)C(C)O)[C@@H](C)OC(=O)[C@H](Cc2ccc(OC)cc2)N(C)C(=O)[C@@H]2CCCN2C(=O)[C@H](CC(C)C)NC(=O)[C@@H](C)C(=O)[C@H](C(C)C)OC(=O)C[C@@H]1O (stereo partly shown) [Didemnin]
mode of PPT1 inhibition (PPT1 [3]): non-competitively inhibit PPT1 activity

Molecule: COc1cccc2c1C(=O)c1c(O)c3c(c(O)c1C2=O)C[C@@](O)(C(=O)CO)C[C@@H]3O[C@H]1C[C@H](N)[C@H](O)[C@H](C)O1 [Doxorubicin, 5,12-Naphthacenedione, (8 s-cis)-10-[(3-amino-2,3,6-trideoxy-a-L-lyxo-hexopyranosyl)oxy]-7,8,9,1 0-tetrahydro-6,8,11-trihydroxy-8-(hydroxyacetyl)-1-methoxy-hydrochloride]
probability of developing impaired myocardial function ([4]; 400 mg/m^2): 3 to 5%
probability of developing impaired myocardial function ([4]; 450 mg/m^2): 5 to 8%
probability of developing impaired myocardial function ([4]; 500 mg/m^2): 6 to 20%
probability of developing impaired myocardial function ([4]; total cumulative dose of 300 mg/m^2): 1 to 2%

Molecule: O=c1cc(N2CCOCC2)oc2c(-c3ccccc3)cccc12 [LY-294002]
cell death (MTT assay) [5]: about 50%

Molecule: O=NN(CCCl)C(=O)NC1CCCCC1 [Lomustine, 1-(2-chloro-ethyl)-3-cyclohexyl-1 nitrosourea]
radioactivity excreted as degradation products within 24 hours ([2]; oral, 30 mg/m^2 to 100 mg/m^2): about half

Molecule: N[C@@H](Cc1ccc(N(CCCl)CCCl)cc1)C(=O)O [Melphalan, 4-[bis(2-chloroethyl)amino]-L-phenylalanine]
patients showing a favorable response [6]: one third to one half

Molecule: CO[C@@]12[C@H](COC(N)=O)C3=C(C(=O)C(C)=C(N)C3=O)N1C[C@@H]1N[C@@H]12 [Mitomycin]
fraction of dose excreted / recovered in the urine [2]: Approximately 10%

Molecule: O=S(=O)(F)Cc1ccccc1 [PMSF, phenylmethylsulfonyl fluoride]
effect on PPT1 enzyme activity (PPT1 [7]; preincubation with 1 mM, control or PPT1 transfected cells): did not affect the enzyme activity

Molecule: CC[C@]1(O)C[C@@H]2CN(CCc3c([nH]c4ccccc34)[C@@](C(=O)OC)(c3cc4c(cc3OC)N(C)[C@H]3[C@@](O)(C(=O)OC)[C@H](OC(C)=O)[C@]5(CC)C=CCN6CC[C@]43[C@@H]65)C2)C1 [Vinblastine]
fraction of dose excreted / recovered in the urine [2]: Approximately 15%

Molecule: COc1cccc2c1C(=O)c1c(O)c3c(c(O)c1C2=O)C[C@@](O)(C(C)=O)C[C@@H]3O[C@H]1C[C@H](N)[C@H](O)[C@H](C)O1 [daunorubicin, 5,12-Naphthacenedione, (8S-cis)-8-acetyl-10-[(3-amino-2,3 ,6-trideoxy-a-L-lyxo-hexanopyranosyl)oxy]-7,8 ,9,1 0-tetrahydro-6,8, 11-trihydroxy-10-methoxy-, hydrochloride]
susceptibility of PPT1 overexpressing cells to killing [8]: markedly decreased susceptibility to killing

Molecule: COc1cc([C@@H]2c3cc4c(cc3[C@@H](O[C@@H]3O[C@@H]5CO[C@@H](C)O[C@H]5[C@H](O)[C@H]3O)[C@H]3COC(=O)[C@H]23)OCO4)cc(OC)c1O [etoposide]
susceptibility of PPT1 overexpressing cells to killing [8]: markedly decreased susceptibility to killing
killing (MTT assay) ([9]; 10 mM etoposide): 50%

Molecule: CN[C@@H]1C[C@H]2O[C@@](C)([C@@H]1OC)n1c3ccccc3c3c4c(c5c6ccccc6n2c5c31)C(=O)NC4 [staurosporine]
susceptibility of PPT1 overexpressing cells to killing [8]: markedly decreased susceptibility to killing

Molecule: AcG-Dap((+/−)α-hydroxyhexadecanoyl)-VKIKK.amide (Ac-G[Dap]VKIKK-NH2; not fully specified (residue 2); printed as AcG-Dap((+/−)α-hydroxyhexadecanoyl)-VKIKK.amide) [DAP-KA]
potency as inducer of cell death relative to DAP1 ([9]; with etoposide): more potent inducer of cell death than DAP1
potency as inhibitor relative to DAP1 (PPT1 [7]): more potent inhibitor than DAP1

inhibition in an in vitro assay (PPT activity) (% inhibition at 20 µM) [10]: 85
Molecule: AcG-palmitoyl diamino propionate-VKIKK (DAP1) (peptide)

effect on PPT1 activity (PPT1 [7]; cell extract preincubated 15 min at 37° C., Po, rhodopsin, GAP-43, Gα peptide substrates): did not affect PPT activity
Molecule: AcGCVKIKK (Ac-GCVKIKK-NH2)

depalmitoylation by extract of PPT1-overexpressing cells against vector-transfected cells [10]: ~2.5 fold
Molecule: MLCCMRR (also: [14C]palmitoyl thioester on one Cys, which not given here) [[14C]palmitoylated GAP43 peptide (MLCCMRR)]
